Measurements as given in US20190054103A1, “METHOD OF TREATMENT OF TP53 WILD-TYPE TUMORS WITH 2',2'-DIFLUORO-5-AZA-2'-DEOXYCYTIDINE OR PRODRUGS THEREOF” (priority 2016, published 2019).

What was measured:
Assay in all cases: NCI 60 Cell Line Panel growth inhibition
Format in all cases: cell-based, human
SF-539 = conditions: SF-539, CNS cancer, TP53 null/mutant
Text: (§1) The NCI-60 Cell Line Panel was assembled by the National Cancer Institute as an in vitro anticancer drug screen. The panel comprises human cancer cell lines representing nine different tissues of origin: breast, colon, central nervous system, renal, lung, melanoma, ovarian, prostate, and hematogenous. […] See, e.g., Leroy et al. “Analysis of TP53 Mutation Status in Human Cancer Cell Lines: a Reassesment” Hum Mutat 2014 35(6): 756-765.

NCI-H522 = conditions: NCI-H522, Lung-NSCL, TP53 null/mutant
Text: as §1

786-0 = conditions: 786-0, Renal cancer, TP53 null/mutant
Text: as §1

IGROV-1 = conditions: IGROV-1, Ovarian cancer, TP53 null/mutant
Text: as §1

NCI-H23 = conditions: NCI-H23, Lung-NSCL, TP53 null/mutant
Text: as §1

SK-MEL-28 = conditions: SK-MEL-28, Melanoma, TP53 null/mutant
Text: as §1

SK-MEL-2 = conditions: SK-MEL-2, Melanoma, TP53 null/mutant
Text: as §1

SF-268 = conditions: SF-268, CNS cancer, TP53 null/mutant
Text: as §1

SF-295 = conditions: SF-295, CNS cancer, TP53 null/mutant
Text: as §1

CCRF-CEM = conditions: Leukemia, TP53 null/mutant
Text: as §1

OVCAR-5 = conditions: OVCAR-5, Ovarian cancer, TP53 wild type
Text: as §1

ACHN = conditions: Renal cancer, TP53 wild type
Text: as §1

MCF7 = conditions: MCF7, Breast cancer, TP53 wild type
Text: as §1

UO-31 = conditions: UO-31, Renal cancer, TP53 wild type
Text: as §1

NCI/ADR-RES = conditions: Ovarian cancer, TP53 null/mutant
Text: as §1

K-562 = conditions: K-562, Leukemia, TP53 null/mutant
Text: as §1

OVCAR-8 = conditions: OVCAR-8, Ovarian cancer, TP53 null/mutant
Text: as §1

EKVX = conditions: Lung-NSCL, TP53 null/mutant
Text: as §1

SK-MEL-5 = conditions: SK-MEL-5, Melanoma, TP53 wild type
Text: as §1

BT-549 = conditions: BT-549, Breast cancer, TP53 null/mutant
Text: as §1

M14 = conditions: M14, Melanoma, TP53 null/mutant
Text: as §1

A498 = conditions: A498, Renal cancer, TP53 wild type
Text: as §1

RPMI-8226 = conditions: RPMI-8226, Leukemia, TP53 null/mutant
Text: as §1

UACC-62 = conditions: UACC-62, Melanoma, TP53 wild type
Text: as §1

HL-60 = conditions: HL-60, Leukemia, TP53 null/mutant
Text: as §1

NCI-H322M = conditions: Lung-NSCL, TP53 null/mutant
Text: as §1

MDA-MB-435 = conditions: MDA-MB-435, Melanoma, TP53 null/mutant
Text: as §1

OVCAR-3 = conditions: OVCAR-3, Ovarian cancer, TP53 null/mutant
Text: as §1

HCT-116 = conditions: HCT-116, Colon cancer, TP53 wild type
Text: as §1

SNB-19 = conditions: SNB-19, CNS cancer, TP53 null/mutant
Text: as §1

NCI-H460 = conditions: NCI-H460, Lung-NSCL, TP53 wild type
Text: as §1

RXF 393 = conditions: RXF 393, Renal cancer, TP53 null/mutant
Text: as §1

SK-OV-3 = conditions: SK-OV-3, Ovarian cancer, TP53 null/mutant
Text: as §1

MALME-3M = conditions: Melanoma, TP53 wild type
Text: as §1

LOX IMVI = conditions: Melanoma, TP53 wild type
Text: as §1

MDA-MB-231 = conditions: MDA-MB-231, Breast cancer, TP53 null/mutant
Text: as §1

TK-10 = conditions: TK-10, Renal cancer, TP53 null/mutant
Text: as §1

## Nc1ncn([C@@H]2O[C@H](CO)[C@@H](O)C2(F)F)c(=O)n1 [NUC013, 4-amino-1-((2R,4R,5R)-3,3-difluoro-4-hydroxy-5-(hydroxymethyl)tetrahydrofuran-2-yl)-1,3,5-triazin-2(1H)-one]
SF-539
  Growth (%) at 10 μM: 22.25%
NCI-H522
  Growth (%) at 10 μM: 86.91%
786-0
  Growth (%) at 10 μM: 26.29%
IGROV-1
  Growth (%) at 10 μM: 56.77%
NCI-H23
  Growth (%) at 10 μM: 30.61%
SK-MEL-28
  Growth (%) at 10 μM: 78.46%
SK-MEL-2
  Growth (%) at 10 μM: 104.47%
SF-268
  Growth (%) at 10 μM: 65.39%
SF-295
  Growth (%) at 10 μM: 77.93%
CCRF-CEM
  Growth (%) at 10 μM: 23.67%
OVCAR-5
  Growth (%) at 10 μM: 86.95%
ACHN
  Growth (%) at 10 μM: 7.28%
MCF7
  Growth (%) at 10 μM: 20.74%
UO-31
  Growth (%) at 10 μM: 39.00%
NCI/ADR-RES
  Growth (%) at 10 μM: 42.13%
K-562
  Growth (%) at 10 μM: 65.66%
OVCAR-8
  Growth (%) at 10 μM: 49.95%
EKVX
  Growth (%) at 10 μM: 86.06%
SK-MEL-5
  Growth (%) at 10 μM: 70.84%
BT-549
  Growth (%) at 10 μM: 53.63%
M14
  Growth (%) at 10 μM: 15.55%
A498
  Growth (%) at 10 μM: 38.04%
RPMI-8226
  Growth (%) at 10 μM: 39.24%
UACC-62
  Growth (%) at 10 μM: 47.29%
HL-60
  Growth (%) at 10 μM: 25.23%
NCI-H322M
  Growth (%) at 10 μM: 70.00%
MDA-MB-435
  Growth (%) at 10 μM: 53.04%
OVCAR-3
  Growth (%) at 10 μM: 70.56%
HCT-116
  Growth (%) at 10 μM: 29.84%
SNB-19
  Growth (%) at 10 μM: 58.88%
NCI-H460
  Growth (%) at 10 μM: 9.34%
RXF 393
  Growth (%) at 10 μM: 44.97%
SK-OV-3
  Growth (%) at 10 μM: 71.09%
MALME-3M
  Growth (%) at 10 μM: 67.90%
LOX IMVI
  Growth (%) at 10 μM: 34.53%
MDA-MB-231
  Growth (%) at 10 μM: 79.98%
TK-10
  Growth (%) at 10 μM: 91.13%
